These results are taken from patent US20250042872A1, “NOVEL SALT OF 1-SULFONYL PYRROLE DERIVATIVE, METHOD FOR PREPARING SAME, AND PHARMACEUTICAL COMPOSITION INCLUDING SAME” (ILDONG PHARMACEUTICAL CO., LTD., priority 2021, published 2025).

Holding throughout (format): physicochemical
Data set [1] is described as follows: Measurement of hygroscopicity by dynamic vapor sorption (DVS). The note with it: FIGS. 22 and 23. The procedure: Using DVS intrinsic manufactured by SMS Co., Ltd, about 20 mg of the sample was tested for water sorption/desorption profiles at 25° C. under a 0%˜95%˜0% relative humidity (RH) cycle using the following parameters. • Temperature: T=25° C. • Equilibrium: dm/dt: 0.01%/min. • Range of RH (%) measurement step: 0%˜95%˜0%; RH(%) measurement step: 5%
Using the dynamic vapor sorption (DVS) test method described above, the hygroscopicity was measured for the hydrochloride salt prepared in Example 1 and the L-tartrate salt prepared in Example 8, and the results thereof were shown in FIGS. 22 and 23.

Data set [2] can be described thus: Evaluation of solubility in biorelevant media (water, SGF, FaSSIF, FeSSIF), HPLC. The note with it: for solubility at 1 h / solubility at 24 h: 37 °C, thermodynamic from solid; for solubility at 1 h / solubility at 24 h / Solubility-1 h Concentration / Solubility-24 h Concentration: 37° C.; for solubility at 1 h: read-out: Solubility-1 h Concentration; for solubility at 24 h: read-out: Solubility-24 h Concentration. The procedure:
Solubility in biorelevant media, such as SGF, FeSSIF, and FaSSIF was confirmed with respect to the free base and the hydrochloride salt, succinate salt and L-tartrate salt of 1-(5-(2-fluorophenyl)-4-methoxy-1-((6-methoxypyridin-3-yl)sulfonyl)-1H-pyrrole-3-yl)-N-methylmethanamine that was confirmed through the salt screening analysis result.
Buffers for the biorelevant media were prepared as follows.
Water: Laboratory Milli-Q purified water.
SGF (Stimulated Gastric Fluid): 2.0 g of sodium chloride and 7 mL of hydrochloric acid dissolved in 1000 mL of water were used.
FaSSIF (Fasted State Simulated Intestinal Fluid): A commercial product purchased from Bio-Relevant Company and manufactured according to instructions was used.
FeSSIF (Fed State Simulated Intestinal Fluid): A commercial product purchased from Bio-Relevant Company and prepared according to instructions was used.
For the experiment, about 10 mg of a compound was weighed into each glass vial and then added with 1 mL of a medium (final concentration of 10 mg/mL). Then, the sample was continuously stirred in a magnetic stirrer at 37° C. at a speed of 200 rpm. After stirring for 1 hour and 24 hours, 0.5 mL of the sample solution was transferred to a 1.5 mL centrifuge tube and centrifuged at 12,000 rpm for 5 minutes. The supernatant was diluted with suitable methanol and analyzed by HPLC.
The free acid was selected as a standard sample to quantify the solubility, and about 10 mg of the free acid was weighed into a 25 mL flask and dissolved in methanol to the […].

Data set [3] in a line: Evaluation of drug stability under stress conditions (high temperature open condition 60° C.), XRPD and HPLC. The conditions noted are these: 60° C. open; for HPLC peak RT 10.063 min, RRT 1.00 (main peak): in %; for stability under harsh conditions (in words): up to week 2. The procedure: 10 mg and 40 mg of the free base and the hydrochloride salt of 1-(5-(2-fluorophenyl)-4-methoxy-1-((6-methoxypyridin-3-yl)sulfonyl)-1H-pyrrole-3-yl)-N-methylmethanamine were weighed into each vial and stored under stress conditions to investigate stability.
The stress conditions are as follows:
High temperature open condition: 60° C.;
The bottle neck of the vial was wrapped with aluminum foil with pinholes to avoid contamination, and the samples were analyzed by XRPD and HPLC at the onset (day 0), week 1 and week 2.

Setting [4] is: SGF, simulated gastric fluid, SGF.

In brackets after ≈: the same amount, converted by molar mass. Counter-ions that a name gives are not always drawn. Like-named read-outs stand apart in the source and are kept apart here. Where only a bound is given, the exact number is not on record here.

As for `CNCc1cn(S(=O)(=O)c2ccc(OC)nc2)c(-c2ccccc2F)c1OC.O=C(O)C(O)C(O)C(=O)O` [L-tartrate salt, L-tartrate salt of 1-(5-(2-fluorophenyl)-4-methoxy-1-((6-methoxypyridin-3-yl)sulfonyl)-1H-pyrrole-3-yl)-N-methylmethanamine], in data set [1], the “hygroscopicity (in words)” value is “very low hygroscopicity”. Also, the solubility at 1 h in data set [2] (FaSSIF, fassif, FaSSIF) was 8160 µg/mL; in data set [2] (FeSSIF, fessif, FeSSIF), 4550 µg/mL; in data set [2] (setting [4]), more than 10000 µg/mL; in data set [2] (water, water, water) it was more than 10000 µg/mL. Moreover, the solubility at 24 h in data set [2] (FaSSIF, fassif, FaSSIF) was more than 10000 µg/mL; in data set [2] (FeSSIF, fessif, FeSSIF), 4540 µg/mL; in data set [2] (setting [4]), more than 10000 µg/mL; in data set [2] (water, water, water), more than 10000 µg/mL.
In the case of `CNCc1cn(S(=O)(=O)c2ccc(OC)nc2)c(-c2ccccc2F)c1OC` [Free base, 1-(5-(2-fluorophenyl)-4-methoxy-1-((6-methoxypyridin-3-yl)sulfonyl)-1H-pyrrole-3-yl)-N-methylmethanamine], in data set [2] (FaSSIF), the “Solubility-1 h Concentration” value is 1440 µg/mL (≈ 3.55 mM) and the “Solubility-24 h Concentration” value is 1440 µg/mL (≈ 3.55 mM). In data set [2] (FeSSIF), the “Solubility-1 h Concentration” value is 4570 µg/mL (≈ 11.3 mM) and the “Solubility-24 h Concentration” value was 4770 µg/mL (≈ 11.8 mM). In data set [2] (SGF), the “Solubility-1 h Concentration” value was more than 10000 µg/mL and the “Solubility-24 h Concentration” value is more than 10000 µg/mL. For the same compound, in data set [2] (water), the “Solubility-1 h Concentration” value was 8560 µg/mL (≈ 21.1 mM) and the “Solubility-24 h Concentration” value was determined as 8630 µg/mL (≈ 21.3 mM). In data set [3] (onset (day 0)), the Assay % was determined as 100.00%; the HPLC peak RRT 1.07 was 0.66%; the “HPLC peak RT 10.063 min, RRT 1.00 (main peak)” value is 93.15. Also, the “stability under harsh conditions (in words)” value in data set [3] is “high impurity content”. In data set [3] (week 1), this compound showed an Assay % of 87.44%; an HPLC peak RRT 1.07 of 0.57%; an HPLC peak RT 6.797 min, RRT 0.68 of 0.43%; an HPLC peak RT 7.563 min, RRT 0.75 of 1%. The same compound displayed an HPLC peak RT 10.277 min, RRT 1.02 in data set [3] (week 1) of 9.95%. Further, in data set [3] (week 2), the HPLC peak RRT 0.93 is 0.14% and the “HPLC peak RT 10.063 min, RRT 1.00 (main peak)” value was 65.00.
Consider `CNCc1cn(S(=O)(=O)c2ccc(OC)nc2)c(-c2ccccc2F)c1OC.O=C(O)CCC(=O)O` [Succinate salt, succinate salt of 1-(5-(2-fluorophenyl)-4-methoxy-1-((6-methoxypyridin-3-yl)sulfonyl)-1H-pyrrole-3-yl)-N-methylmethanamine], for which the solubility at 1 h was 8100 µg/mL in data set [2] (FaSSIF, fassif, FaSSIF); 4780 µg/mL in data set [2] (FeSSIF, fessif, FeSSIF); more than 10000 µg/mL in data set [2] (setting [4]); more than 10000 µg/mL in data set [2] (water, water, water). The solubility at 24 h in data set [2] (FaSSIF, fassif, FaSSIF) is more than 10000 µg/mL; in data set [2] (FeSSIF, fessif, FeSSIF) it was 4720 µg/mL; in data set [2] (setting [4]), more than 10000 µg/mL; in data set [2] (water, water, water), more than 10000 µg/mL.
With `CNCc1cn(S(=O)(=O)c2ccc(OC)nc2)c(-c2ccccc2F)c1OC` [Hydrochloride salt, hydrochloride salt of 1-(5-(2-fluorophenyl)-4-methoxy-1-((6-methoxypyridin-3-yl)sulfonyl)-1H-pyrrole-3-yl)-N-methylmethanamine], the “hygroscopicity (in words)” value in data set [1] is recorded as “very low hygroscopicity”. Besides, the “Solubility-1 h Concentration” value in data set [2] (FaSSIF) was 9710 µg/mL. For the same compound, the “Solubility-24 h Concentration” value in data set [2] (FaSSIF) was 5920 µg/mL. For the same compound, the solubility at 1 h is 4450 µg/mL in data set [2] (FeSSIF, fessif, FeSSIF); more than 10000 µg/mL in data set [2] (setting [4]); more than 10000 µg/mL in data set [2] (water, water, water). For the same compound, the solubility at 24 h in data set [2] (FeSSIF, fessif, FeSSIF) is 4370 µg/mL; in data set [2] (setting [4]), more than 10000 µg/mL; in data set [2] (water, water, water), more than 10000 µg/mL. In addition, the “solubility in FaSSIF (in words)” value in data set [2] (fasted state simulated intestinal fluid) is reported as “very good”. Besides, the Assay % in data set [3] (onset (day 0)) is 100.50%; in data set [3] (week 1), 106.14%. In data set [3], the “stability under harsh conditions (in words)” value is listed as “excellent stability”.
